According to patent US20260132125A1, “PESTICIDALLY ACTIVE FUSED BICYCLIC HETEROAROMATIC COMPOUNDS” (priority 2022, published 2026):

Key:
Type in all cases: in vivo
Chilo suppressalis = assay: Example B1: activity against Chilo suppressalis (striped rice stemborer), artificial diet; settings: 144 h, 200 ppm, L2 larvae, 6 days after infestation, read-out: control (at least one of mortality, anti-feedant effect, growth inhibition)
Method: 24-well microtiter plates with artificial diet were treated with aqueous test solutions prepared from 10′000 ppm DMSO stock solutions by pipetting. After drying, the plates were infested with L2 larvae (6-8 per well). The samples were assessed for mortality, anti-feeding effect, and growth inhibition in comparison to untreated samples 6 days after infestation. Control of Chilo suppressalis by a test sample is given when at least one of the categories mortality, anti-feedant effect, and growth inhibition is higher than the untreated sample.

Diabrotica balteata = assay: Example B2: activity against Diabrotica balteata (corn root worm), maize sprouts; settings: 96 h, L2 larvae, 4 days after infestation, read-out: effect in at least one of the two categories (mortality or growth inhibition)
Method: Maize sprouts placed onto an agar layer in 24-well microtiter plates were treated with aqueous test solutions prepared from 10′000 ppm DMSO stock solutions by spraying. After drying, the plates were infested with L2 larvae (6 to 10 per well). The samples were assessed for mortality and growth inhibition in comparison to untreated samples 4 days after infestation. The following compounds gave an effect of at least 80% in at least one of the two categories (mortality or growth inhibition) at an application rate of 200 ppm: P1, P2, P3, P4, P5, P7, P8, P9, P10, P11, P12, P13, P14, P15, P16, P17, P18, P19, P20, P21, P22, P23, P24, P25, P26, P27, P28, P29, P30, P31, P33, P34, P35, P36, P37, P38, P39, P40, P41, P42, P43, P45, P46, P47, P48, P49, P50, P51, P52, P53, P55, P57, P58, P59, P60, P61, P62, P63, P64, P65, P66, P67, P69, P71, P75, P81, P82, P83.

Spodoptera littoralis = assay: Example B6: activity against Spodoptera littoralis (Egyptian cotton leaf worm), cotton leaf discs; settings: foliar; for percent control (mortality, anti-feedant effect or growth inhibition) at 200 ppm: 72 h, L1 larvae, 3 days after infestation, read-out: control (at least one of mortality, anti-feedant effect, growth inhibition)
Method: Cotton leaf discs were placed onto agar in 24-well microtiter plates and sprayed with aqueous test solutions prepared from 10′000 ppm DMSO stock solutions. After drying the leaf discs were infested with five L1 larvae. The samples were assessed for mortality, anti-feeding effect, and growth inhibition in comparison to untreated samples 3 days after infestation. Control of Spodoptera littoralis by a test sample is given when at least one of the categories mortality, anti-feedant effect, and growth inhibition is higher than the untreated sample.

Myzus persicae = assay: Example B4: activity against Myzus persicae (green peach aphid), intrinsic activity; settings: 120 h, test rate 12 ppm, 5 days after infestation
Method: Test compounds prepared from 10′000 ppm DMSO stock solutions were applied by pipette into 24-well microtiter plates and mixed with sucrose solution. The plates were closed with a stretched Parafilm. A plastic stencil with 24 holes was placed onto the plate and infested pea seedlings were placed directly on the Parafilm. The infested plate was closed with a gel blotting paper and another plastic stencil and then turned upside down. The samples were assessed for mortality 5 days after infestation.

Pseudoplusia includens = assay: Example B9: Pseudoplusia includens (soybean looper), larvicide, feeding/contact, soybean plants; settings: Chrysodeixis includens, 120 h; 50 ppm; L2 larvae; 5 days after infestation; read-out: effect in at least one of the two categories (mortality or growth inhibition)
Method: Soybean plants were treated in a spray chamber, cut off and placed into petri dishes containing wet filter paper. 1d after application leaves were infested with 5 L2 larvae and covered with a fabric filter and plastic lids. 5 days after infestation the samples were assessed for mortality and growth inhibition. The following compounds gave an effect of at least 80% in at least one of the two categories (mortality or growth inhibition) at an application rate of 50 ppm: […]

Plutella xylostella = assay: Example B5: activity against Plutella xylostella (diamond back moth), artificial diet, eggs; settings: 192 h, 8 days after infestation, read-out: effect in at least one of the two categories (mortality or growth inhibition)
Method: 24-well microtiter plates with artificial diet were treated with aqueous test solutions prepared from 10′000 ppm DMSO stock solutions by pipetting. After drying, Plutella eggs were pipetted through a plastic stencil onto a gel blotting paper and the plate was closed with it. The samples were assessed for mortality and growth inhibition in comparison to untreated samples 8 days after infestation. The following compounds gave an effect of at least 80% in at least one of the two categories (mortality or growth inhibition) at an application rate of 200 ppm: P1, P2, P3, P4, P5, P6, P7, P8, P9, P10, P11, P12, P13, P14, P15, P16, P17, P18, P19, P20, P21, P22, P23, P24, P25, P26, P27, P28, P29, P30, P31, P32, P33, P34, P35, P36, P37, P38, P39, P40, P41, P42, P43, P44, P45, P46, P47, P48, P49, P50, P51, P52, P53, P54, P55, P57, P58, P59, P60, P61, P62, P63, P64, P65, P66, P67, P69, P70, P71, P72, P73, P74, P75, P77, P78, P81, P82, P83.

| SMILES | percent control (mortality, anti-feedant effect or growth inhibition) at 200 ppm (Chilo suppressalis) | percent effect (mortality or growth inhibition) at 200 ppm (Diabrotica balteata) | percent control (mortality, anti-feedant effect or growth inhibition) at 200 ppm (Spodoptera littoralis) | mortality at 12 ppm (Myzus persicae) | percent effect (mortality or growth inhibition) at 50 ppm (Pseudoplusia includens) | percent effect (mortality or growth inhibition) at 200 ppm (Plutella xylostella) | mortality at 50 ppm (Spodoptera littoralis; 50 ppm) |
| --- | --- | --- | --- | --- | --- | --- | --- |
| C[C@H](Nc1ncnc2c(C(F)(F)F)cc(Cl)cc12)c1ncnn1-c1ncc(C(N)=O)s1 [Compound P8] | ≥ 80% | ≥ 80% | ≥ 80% | ≥ 80% | ≥ 80% | ≥ 80% |  |
| C[C@H](Nc1ncnc2c(Cl)cc(I)cc12)c1ncnn1-c1ncc(C(N)=O)s1 [Compound P37, 2-[5-[(1S)-1-[(8-chloro-6-iodo-quinazolin-4-yl)amino]ethyl]-1,2,4-triazol-1-yl]thiazole-5-carboxamide] | ≥ 80% | ≥ 80% | ≥ 80% | ≥ 80% |  | ≥ 80% | 100% |
| C[C@H](Nc1ncnc2c(C(F)(F)F)cc(Cl)cc12)c1ncnn1-c1cc(C(=O)NCCC#N)ncn1 [Compound P39] | ≥ 80% | ≥ 80% | ≥ 80% | ≥ 80% |  | ≥ 80% |  |
| C[C@H](Nc1ncnc2c(I)cc(Cl)cc12)c1ncnn1-c1cc(C#N)ncn1 [Compound P40, 6-[5-[(1S)-1-[(6-chloro-8-iodo-quinazolin-4-yl)amino]ethyl]-1,2,4-triazol-1-yl]pyrimidine-4-carbonitrile] | ≥ 80% | ≥ 80% | ≥ 80% | ≥ 80% |  | ≥ 80% |  |
| C[C@H](Nc1ncnc2c(C(F)(F)F)cc(Cl)cc12)c1ncnn1-c1cc(C(=O)NC(C)(C)C#N)ncn1 [Compound P43, 6-[5-[(1S)-1-[[6-chloro-8-(trifluoromethyl)quinazolin-4-yl]amino]ethyl]-1,2,4-triazol-1-yl]-N-(1-cyano-1-methyl-ethyl)pyrimidine-4-carboxamide] | ≥ 80% | ≥ 80% | ≥ 80% | ≥ 80% |  | ≥ 80% |  |
| C[C@H](Nc1ncnc2c(C(F)(F)F)cc(Cl)cc12)c1ncnn1-c1cc(C(=O)N(C)O)ncn1 [Compound P46, 6-[5-[(1S)-1-[[6-chloro-8-(trifluoromethyl)quinazolin-4-yl]amino]ethyl]-1,2,4-triazol-1-yl]-N-hydroxy-N-methyl-pyrimidine-4-carboxamide] | ≥ 80% | ≥ 80% | ≥ 80% | ≥ 80% |  | ≥ 80% |  |
| C[C@@H](c1ncnn1-c1cc(C(N)=O)ncn1)N(C)c1ncnc2c(Cl)cc(I)cc12 [Compound P49, 6-[5-[(1S)-1-[(8-chloro-6-iodo-quinazolin-4-yl)-methyl-amino]ethyl]-1,2,4-triazol-1-yl]pyrimidine-4-carboxamide] | ≥ 80% | ≥ 80% | ≥ 80% | ≥ 80% |  | ≥ 80% |  |
| C[C@H](Nc1ncnc2c(I)cc(Cl)cc12)c1ncnn1-c1cc(C(=O)N(C)C)ncn1 [Compound P65, 6-[5-[(1S)-1-[(6-chloro-8-iodo-quinazolin-4-yl)amino]ethyl]-1,2,4-triazol-1-yl]-N,N-dimethyl-pyrimidine-4-carboxamide] | ≥ 80% | ≥ 80% | ≥ 80% | ≥ 80% |  | ≥ 80% |  |
| C[C@@H](c1ncnn1-c1cc(C(=O)N(C)C)ncn1)N(C)c1ncnc2c(I)cc(Cl)cc12 [Compound P66, 6-[5-[(1S)-1-[(6-chloro-8-iodo-quinazolin-4-yl)-methyl-amino]ethyl]-1,2,4-triazol-1-yl]-N,N-dimethyl-pyrimidine-4-carboxamide] | ≥ 80% | ≥ 80% | ≥ 80% | ≥ 80% |  | ≥ 80% |  |
| C[C@H](Nc1ncnc2c(Cl)cc(C(F)(F)F)cc12)c1ncnn1-c1cnc(C(=O)NCC#N)cn1 [Compound P69, 5-[5-[(1S)-1-[[8-chloro-6-(trifluoromethyl)quinazolin-4-yl]amino]ethyl]-1,2,4-triazol-1-yl]-N-(cyanomethyl)pyrazine-2-carboxamide] | ≥ 80% | ≥ 80% | ≥ 80% | ≥ 80% |  | ≥ 80% |  |
| C[C@@H](c1ncnn1-c1cc(C(=O)N(C)C2CC2)ncn1)N(C)c1ncnc2c(C(F)(F)F)cc(Cl)cc12 [Compound P81, 6-[5-[(1S)-1-[[6-chloro-8-(trifluoromethyl)quinazolin-4-yl]-methyl-amino]ethyl]-1,2,4-triazol-1-yl]-N-cyclopropyl-N-methyl-pyrimidine-4-carboxamide] | ≥ 80% | ≥ 80% | ≥ 80% | ≥ 80% |  | ≥ 80% |  |
| C[C@@H](c1ncnn1-c1cc(C(=O)N(C)CC2CC2)ncn1)N(C)c1ncnc2c(C(F)(F)F)cc(Cl)cc12 [Compound P83, 6-[5-[(1S)-1-[[6-chloro-8-(trifluoromethyl)quinazolin-4-yl]-methyl-amino]ethyl]-1,2,4-triazol-1-yl]-N-(cyclopropylmethyl)-N-methyl-pyrimidine-4-carboxamide] | ≥ 80% | ≥ 80% | ≥ 80% | ≥ 80% |  | ≥ 80% |  |
